Experimental data as given in US20260356856A1, “KRAS G12S AND G12C INHIBITORS” (MIRATI THERAPEUTICS, INC., priority 2023, published 2026).

What was measured:
[1] = target: T1, KRas-mediated phosphorylation of ERK in MKN1 cells (Homo sapiens, UniProt P01116); test: Inhibition of KRas-mediated phosphorylation of ERK (HTRF), MKN1 cells; assay type: cell-based; conditions: MKN1 cells (KRas WT); HTRF pERK; 3 h incubation
T1 construct: pERK HTRF read-out
Experimental: Inhibition of KRas Phosphorylation of ERK (HTRF) by Exemplary Compounds of Formula (Ia) or (Ib)
Cisbio HTRF Advanced pERK Assay Catalog #64AERPEH • Cells: MKN1, PSN1 • Procedure: • 1. Day 1: Seed 6,000 cells/well −25 μl/well in 384-well white solid bottom plate; RPM1_10% FBS. Incubate overnight at 37 °C/5% CO2. • 2.

KRas G12S = target: T2, KRas G12S (Homo sapiens, UniProt P01116, G12S); test: KRas binding assay, TR-FRET displacement of Cy5 labelled tracer; conditions: 60-minute incubation at room temperature, 1% DMSO, pH 7.5
T2 construct: Biotinylated KRas (corresponding to amino acids 1-169, produced at Accelegan Inc.); biotin (biotinylated); purchased Accelegan Inc
Summary of the method: (§1)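 Biotinylated KRas (residues 1-169) was incubated with tracer, terbium-streptavidin and compound at 1% DMSO final in 50 mM HEPES pH 7.5 containing 5 mM MgCl2, 0.005% Tween-20 and 1 mM DTT. The plate was read after 60 min at room temperature, and percent-of-control data were fit to a 4-parameter IC50 equation.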

KRas WT = target: T3, KRas WT (Homo sapiens, UniProt P01116); test: as above; conditions: 60-minute incubation at room temperature, 1% DMSO, pH 7.5
T3 construct: Biotinylated KRas (corresponding to amino acids 1-169, produced at Accelegan Inc.); biotin (biotinylated); purchased Accelegan Inc
Summary of the method: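 Final conditions: 1% DMSO, pH 7.5 HEPES buffer, 60 min, room temperature. Protein: biotin-KRas 1-169 with terbium streptavidin. Output: IC50, four-parameter fit of POC.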

KRas G12C = target: T4, KRas G12C (Homo sapiens, UniProt P01116, G12C); test: as above; conditions: 60-minute incubation at room temperature, 1% DMSO, pH 7.5
T4 construct: Biotinylated KRas (corresponding to amino acids 1-169, produced at Accelegan Inc.); biotin (biotinylated); purchased Accelegan Inc
Summary of the method: as §1

[2] = target: T5, KRas-mediated phosphorylation of ERK in A549 cells (Homo sapiens, UniProt P01116, G12S); test: Inhibition of KRas-mediated phosphorylation of ERK (HTRF), A549 cells; assay type: cell-based; conditions: HTRF pERK, 3 h incubation
T5 construct: pERK HTRF read-out
T5 sequence (P01116 1-188 isoform P01116-2 G12S): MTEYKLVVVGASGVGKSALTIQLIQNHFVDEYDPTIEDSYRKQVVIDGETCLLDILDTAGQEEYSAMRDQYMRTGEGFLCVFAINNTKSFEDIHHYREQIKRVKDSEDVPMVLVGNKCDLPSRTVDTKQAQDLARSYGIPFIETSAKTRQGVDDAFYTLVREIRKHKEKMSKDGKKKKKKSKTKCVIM

T1 sequence (P01116 1-188 isoform P01116-2): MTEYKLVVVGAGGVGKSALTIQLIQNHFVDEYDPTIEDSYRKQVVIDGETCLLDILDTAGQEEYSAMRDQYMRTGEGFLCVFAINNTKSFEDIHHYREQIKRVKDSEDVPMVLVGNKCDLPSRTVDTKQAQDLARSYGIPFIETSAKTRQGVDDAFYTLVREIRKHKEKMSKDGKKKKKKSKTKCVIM
T4 sequence (P01116 1-169 isoform P01116-2 G12C): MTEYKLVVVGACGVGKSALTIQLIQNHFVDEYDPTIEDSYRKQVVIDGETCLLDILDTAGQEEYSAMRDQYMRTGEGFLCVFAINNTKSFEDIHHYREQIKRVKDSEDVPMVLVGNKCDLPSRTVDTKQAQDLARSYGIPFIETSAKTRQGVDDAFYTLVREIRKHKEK
T2 sequence (P01116 1-169 isoform P01116-2 G12S): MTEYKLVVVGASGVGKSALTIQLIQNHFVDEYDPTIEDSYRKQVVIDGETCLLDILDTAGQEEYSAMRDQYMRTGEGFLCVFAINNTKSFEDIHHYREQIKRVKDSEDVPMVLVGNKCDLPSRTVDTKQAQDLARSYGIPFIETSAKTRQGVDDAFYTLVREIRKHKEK
T3 sequence (P01116 1-169 isoform P01116-2): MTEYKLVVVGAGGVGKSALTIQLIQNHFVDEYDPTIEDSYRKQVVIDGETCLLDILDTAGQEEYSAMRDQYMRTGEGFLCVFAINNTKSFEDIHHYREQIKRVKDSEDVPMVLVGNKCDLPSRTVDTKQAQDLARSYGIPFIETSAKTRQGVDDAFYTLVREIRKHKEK

Row | Compound | IC50 [1] [nM] | IC50 (KRas G12S) [nM] | IC50 (KRas WT) [nM] | IC50 (KRas G12C) [nM] | IC50 [2] [nM]
1 | CCc1c(F)ccc2cc(O)cc(-c3ncc4c(NC[C@@H]5C[C@H]5C(=O)n5ccc(C)n5)nc(OC[C@@]56CCCN5C[C@H](F)C6)nc4c3F)c12 [Example 112, ((1R,2R)-2-(((7-(8-ethyl-7-fluoro-3-hydroxynaphthalen-1-yl)-8-fluoro-2-(((2R,7aS)-2-fluorotetrahydro-1H-pyrrolizin-7a(5H)-yl)methoxy)pyrido[4,3-d]pyrimidin-4-yl)amino)methyl)cyclopropyl)(3-methyl-1H-pyrazol-1-yl)methanone] | 80 | 9 | 19 | 11 | 15
2 | Cc1ccn(C(=O)C2CCN(c3nc(OC[C@@]45CCCN4C/C(=C\F)C5)nc4c(F)c(-c5ccc(F)c6sc(N)c(C#N)c56)c(Cl)cc34)CC2)n1 [Example 135, 2-amino-4-(6-chloro-8-fluoro-2-(((S,Z)-2-(fluoromethylene)tetrahydro-1H-pyrrolizin-7a(5H)-yl)methoxy)-4-(4-(3-methyl-1H-pyrazole-1-carbonyl)piperidin-1-yl)quinazolin-7-yl)-7-fluorobenzo[b]thiophene-3-carbonitrile] | 83 | 6 | 11 | 9 | 6
3 | CCc1c(F)ccc2cc(O)cc(-c3ncc4c(N5C[C@H](C(=O)n6ccc(C)n6)[C@@H](C)C5)nc(OC[C@@]56CCCN5C[C@H](F)C6)nc4c3F)c12 [Example 96, ((3R,4R)-1-(7-(8-ethyl-7-fluoro-3-hydroxynaphthalen-1-yl)-8-fluoro-2-(((2R,7aS)-2-fluorotetrahydro-1H-pyrrolizin-7a(5H)-yl)methoxy)pyrido[4,3-d]pyrimidin-4-yl)-4-methylpyrrolidin-3-yl)(3-methyl-1H-pyrazol-1-yl)methanone] | > 10000 | 339 | 162 | 375 | > 10000
4 | Cc1ccn(C(=O)C2CCCCN(c3nc(OC[C@@]45CCCN4C[C@H](F)C5)nc4c(F)c(-c5ccc(F)c6sc(N)c(C#N)c56)c(Cl)cc34)C2)n1 (stereo partly drawn) [Example 136, 2-amino-4-(6-chloro-8-fluoro-2-(((2R,7aS)-2-fluorotetrahydro-1H-pyrrolizin-7a(5H)-yl)methoxy)-4-(3-(3-methyl-1H-pyrazole-1-carbonyl)azepan-1-yl)quinazolin-7-yl)-7-fluorobenzo[b]thiophene-3-carbonitrile] | 13 | 17 | 23 | 16 | 249
5 | CCc1c(F)ccc2cc(O)cc(N3CCc4c(nc(OC[C@@]56CCCN5C[C@H](F)C6)nc4N4CCCC(C(=O)n5ccc(C)n5)CCC4)C3)c12 [Example 149, (1-(7-(8-ethyl-7-fluoro-3-hydroxynaphthalen-1-yl)-2-(((2R,7aS)-2-fluorotetrahydro-1H-pyrrolizin-7a(5H)-yl)methoxy)-5,6,7,8-tetrahydropyrido[3,4-d]pyrimidin-4-yl)azocan-5-yl)(3-methyl-1H-pyrazol-1-yl)methanone] | 6530 | 1470 | 1310 | 3740 | > 10000
6 | CCc1c(F)ccc2cc(O)cc(-c3ncc4c(NCC5CC(C(=O)n6ccc(C)n6)C5)nc(OC[C@@]56CCCN5C[C@H](F)C6)nc4c3F)c12 (stereo partly drawn) [Example 93, (3-(((7-(8-ethyl-7-fluoro-3-hydroxynaphthalen-1-yl)-8-fluoro-2-(((2R,7aS)-2-fluorotetrahydro-1H-pyrrolizin-7a(5H)-yl)methoxy)pyrido[4,3-d]pyrimidin-4-yl)amino)methyl)cyclobutyl)(3-methyl-1H-pyrazol-1-yl)methanone] | 325 | 3 | 13 | 4 | 26
7 | CCc1c(F)ccc2cc(O)cc(-c3ncc4c(N5CCCC(C(=O)n6ccc(C)n6)CC5)nc(OC[C@@H]5CCCN5C)nc4c3F)c12 (stereo partly drawn) [Example 168, (1-(7-(8-ethyl-7-fluoro-3-hydroxynaphthalen-1-yl)-8-fluoro-2-(((S)-1-methylpyrrolidin-2-yl)methoxy)pyrido[4,3-d]pyrimidin-4-yl)azepan-4-yl)(3-methyl-1H-pyrazol-1-yl)methanone] | 8690 | 72 | 1380 | 384 | 245
8 | CCc1c(F)ccc2cc(O)cc(N3CCc4c(nc(OC[C@@]56CCCN5C[C@H](F)C6)nc4N4CCCCC(C(=O)n5ccc(C)n5)C4)C3)c12 (stereo partly drawn) [Example 147, (1-(7-(8-ethyl-7-fluoro-3-hydroxynaphthalen-1-yl)-2-(((2R,7aS)-2-fluorotetrahydro-1H-pyrrolizin-7a(5H)-yl)methoxy)-5,6,7,8-tetrahydropyrido[3,4-d]pyrimidin-4-yl)azepan-3-yl)(3-methyl-1H-pyrazol-1-yl)methanone] | 45 | 37 | 45 | 16 | 1210
9 | CCc1c(F)ccc2cc(O)cc(-c3ncc4c(N5CCC(C)(C(=O)n6ccc(C)n6)C5)nc(OC[C@@]56CCCN5C[C@H](F)C6)nc4c3F)c12 (stereo partly drawn) [Example 94, (1-(7-(8-ethyl-7-fluoro-3-hydroxynaphthalen-1-yl)-8-fluoro-2-(((2R,7aS)-2-fluorotetrahydro-1H-pyrrolizin-7a(5H)-yl)methoxy)pyrido[4,3-d]pyrimidin-4-yl)-3-methylpyrrolidin-3-yl)(3-methyl-1H-pyrazol-1-yl)methanone] | 6200 | 232 | 306 | 15 | 1070
10 | Cc1ccn(C(=O)C2CCCCN(c3nc(OC[C@@]45CCCN4C[C@H](F)C5)nc4c(F)c(-c5ccc(F)c6sc(N)c(C#N)c56)c(Cl)cc34)CC2)n1 (stereo partly drawn) [Example 137, 2-amino-4-(6-chloro-8-fluoro-2-(((2R,7aS)-2-fluorotetrahydro-1H-pyrrolizin-7a(5H)-yl)methoxy)-4-(4-(3-methyl-1H-pyrazole-1-carbonyl)azocan-1-yl)quinazolin-7-yl)-7-fluorobenzo[b]thiophene-3-carbonitrile] | 142 | 10 | 44 | 13 | 29
11 | CCc1c(F)ccc2cc(O)cc(-c3ncc4c(NC[C@@H]5C[C@@H]5C(=O)n5ccc(C)n5)nc(OC[C@@]56CCCN5C[C@H](F)C6)nc4c3F)c12 [Example 103, ((1S,2R)-2-(((7-(8-ethyl-7-fluoro-3-hydroxynaphthalen-1-yl)-8-fluoro-2-(((2R,7aS)-2-fluorotetrahydro-1H-pyrrolizin-7a(5H)-yl)methoxy)pyrido[4,3-d]pyrimidin-4-yl)amino)methyl)cyclopropyl)(3-methyl-1H-pyrazol-1-yl)methanone] | 351 | 35 | 34 | 37 | 167
12 | CCc1c(F)ccc2cc(O)cc(-c3ncc4c(N5CC6CCC(C(=O)n7ccc(C)n7)C6C5)nc(OC[C@@]56CCCN5C[C@H](F)C6)nc4c3F)c12 (stereo partly drawn) [Example 104, (2-(7-(8-ethyl-7-fluoro-3-hydroxynaphthalen-1-yl)-8-fluoro-2-(((2R,7aS)-2-fluorotetrahydro-1H-pyrrolizin-7a(5H)-yl)methoxy)pyrido[4,3-d]pyrimidin-4-yl)octahydrocyclopenta[c]pyrrol-4-yl)(3-methyl-1H-pyrazol-1-yl)methanone] | 931 | 176 | 77 | 295 | 1580
13 | CCc1c(F)ccc2cc(O)cc(-c3ncc4c(N5C[C@@H](C)N(C(=O)n6ccc(C)n6)[C@H](C)C5)nc(OC[C@@]56CCCN5C[C@H](F)C6)nc4c3F)c12 [Example 86, ((2R,6R)-4-(7-(8-ethyl-7-fluoro-3-hydroxynaphthalen-1-yl)-8-fluoro-2-(((2R,7aS)-2-fluorotetrahydro-1H-pyrrolizin-7a(5H)-yl)methoxy)pyrido[4,3-d]pyrimidin-4-yl)-2,6-dimethylpiperazin-1-yl)(3-methyl-1H-pyrazol-1-yl)methanone] | 4230 | 2200 | 2320 | 3450 | 8960
14 | CCc1c(F)ccc2cc(O)cc(-c3ncc4c(N5CC6C(CC(=O)n7ccc(C)n7)C6C5)nc(OC[C@@]56CCCN5C[C@H](F)C6)nc4c3F)c12 (stereo partly drawn) [Example 120, 2-(3-(7-(8-ethyl-7-fluoro-3-hydroxynaphthalen-1-yl)-8-fluoro-2-(((2R,7aS)-2-fluorotetrahydro-1H-pyrrolizin-7a(5H)-yl)methoxy)pyrido[4,3-d]pyrimidin-4-yl)-3-azabicyclo[3.1.0]hexan-6-yl)-1-(3-methyl-1H-pyrazol-1-yl) ethan-1-one] | 5380 | 186 | 1210 | 142 | 229
